According to ChEMBL document CHEMBL1201862, “PubChem BioAssay data set” (2004):
Activity calls are given as the source filed them.

Tests used:
Cytochrome P450 2D6 = Cytochrome P450 2D6 (Homo sapiens, UniProt P10635);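 also: CYP2D6 member of a cytochrome P450 panel assay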
[1] = biological target: T1, Calpain-2 catalytic subunit (Sus scrofa, UniProt P43367); experiment: m-calpain protease blockers, concentration series – biochemical, fluorogenic peptide substrate, dose response (AID 1420); type: functional
T1 sequence (P43367 whole entry): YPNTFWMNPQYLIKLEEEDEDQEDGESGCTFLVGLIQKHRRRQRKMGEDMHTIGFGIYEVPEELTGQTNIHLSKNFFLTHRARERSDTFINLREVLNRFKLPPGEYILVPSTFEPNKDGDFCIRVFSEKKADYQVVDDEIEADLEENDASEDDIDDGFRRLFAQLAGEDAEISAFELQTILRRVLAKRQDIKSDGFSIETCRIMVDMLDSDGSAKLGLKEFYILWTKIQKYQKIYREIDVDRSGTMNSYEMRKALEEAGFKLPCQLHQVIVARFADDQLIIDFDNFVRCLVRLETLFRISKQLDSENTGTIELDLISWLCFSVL

[2] = biological target: FAD-linked sulfhydryl oxidase ALR (Homo sapiens, UniProt P55789); experiment: ALR-catalysed DTT oxidation blockers – biochemical, H2O2 detection, luminescence, cherry-pick, dose response (AID 493248)
[3] = P. falciparum Dd2 growth inhibitors, dose response, SYBR Green, cherry-picked samples (AID 1159567); type: functional, cell-based
Streptokinase A = biological target: T2, Streptokinase A (Streptococcus pyogenes serotype M1, UniProt P10520); experiment: viability-normalized secreted streptokinase activity reduction – plasminogen activation absorbance, OD405, dose response (AID 1914); type: functional, Streptococcus pyogenes M1 GAS;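 also: secreted streptokinase activity via plasminogen activation per viability signal from cell pellet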
T2 sequence (P10520 whole entry): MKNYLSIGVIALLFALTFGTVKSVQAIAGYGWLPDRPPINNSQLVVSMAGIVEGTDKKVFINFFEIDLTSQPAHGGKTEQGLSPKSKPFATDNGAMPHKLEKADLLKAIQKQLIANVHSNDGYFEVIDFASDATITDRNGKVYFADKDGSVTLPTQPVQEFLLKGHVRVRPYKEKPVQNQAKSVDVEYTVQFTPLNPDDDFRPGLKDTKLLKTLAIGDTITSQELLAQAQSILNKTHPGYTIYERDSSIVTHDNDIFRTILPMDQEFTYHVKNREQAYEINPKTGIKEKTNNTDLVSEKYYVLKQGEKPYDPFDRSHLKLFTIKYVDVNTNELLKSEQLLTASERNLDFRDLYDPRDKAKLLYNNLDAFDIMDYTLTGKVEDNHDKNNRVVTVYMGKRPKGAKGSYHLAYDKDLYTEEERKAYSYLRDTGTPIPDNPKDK

[4] = Luminescence Cell-Based Dose Confirmation HTS to Identify Inhibitors of Platelet Dense Granule Release. [Related pubchem assays: 1663 (Primary HTS), 1678 (Summary of Project)]; type: functional
[5] = test system: Streptococcus sp. 'group A'; experiment: Streptococcus pyogenes SK(-)GAS viability under kanamycin – luminescence, BacTiterGlo, confirmation, counter-screen for streptokinase expression inhibitor project, dose response (AID 1900); type: functional, organism-based
Streptococcus = experiment: GAS UMAA2166 growth inhibition – luminescence, BacTiterGlo, counter-screen for streptokinase expression inhibitor project, dose response (AID 1915); type: functional, organism-based;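 also: potency for reduction of bacterial viability or growth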
[6] = biological target: Luciferin 4-monooxygenase (Photinus pyralis, UniProt P08659); experiment: inhibition of purified Photinus pyralis luciferase – biochemical, luminescence, dose response (AID 1891)
[7] = Luminescence Cell-Based Dose Retest to Confirm Inhibitors of Cancer Stem Cells. [Related pubchem assays (depositor defined):AID2717, AID2721]; type: functional; conditions: Homo sapiens
[8] = fluconazole-exposed Candida albicans growth modulators – fluorescence, retest, confirmation (AID 2467); type: functional, cell-based
[9] = NIH-3T3 fibroblast cytotoxicity, dose response, cytotoxicity control, cell-based, fluorescence, Alamar Blue, secondary assay (AID 2327); type: functional;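 also: NIH-3T3 mouse fibroblasts cultured with fluconazole at 8 µg/mL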
Cytochrome P450 2C9 = Cytochrome P450 2C9 (Homo sapiens, UniProt P11712)
Cytochrome P450 3A4 = Cytochrome P450 3A4 (Homo sapiens, UniProt P08684);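 also: CYP3A4 tested as one member of a cytochrome P450 panel screen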
[10] = reduction of Shn3 3'UTR-driven luciferase in osteoblasts – cell-based, Clone20 osteoblasts, firefly luciferase, cherry-picked, dose response (AID 624132); type: functional;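 also: firefly luciferase luminescence from reporter carrying the Shn3 3'UTR in osteoblasts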
INS1 = experiment: INS-1E survival protection against cytokine death – cell-based, luminescence, retest, dose response (AID 449756); type: functional; conditions: Rattus norvegicus;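 also: cell death triggered by IL-1 beta plus TNF-alpha plus IFN-gamma mixture; protective hits raise ATP signal compared with cytokine alone wells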
Cytochrome P450 1A2 = biological target: T3, Cytochrome P450 1A2 (Homo sapiens, UniProt P05177);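 also: PubChem cytochrome P450 panel assay, CYP1A2 panel member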
T3 sequence (P05177 whole entry): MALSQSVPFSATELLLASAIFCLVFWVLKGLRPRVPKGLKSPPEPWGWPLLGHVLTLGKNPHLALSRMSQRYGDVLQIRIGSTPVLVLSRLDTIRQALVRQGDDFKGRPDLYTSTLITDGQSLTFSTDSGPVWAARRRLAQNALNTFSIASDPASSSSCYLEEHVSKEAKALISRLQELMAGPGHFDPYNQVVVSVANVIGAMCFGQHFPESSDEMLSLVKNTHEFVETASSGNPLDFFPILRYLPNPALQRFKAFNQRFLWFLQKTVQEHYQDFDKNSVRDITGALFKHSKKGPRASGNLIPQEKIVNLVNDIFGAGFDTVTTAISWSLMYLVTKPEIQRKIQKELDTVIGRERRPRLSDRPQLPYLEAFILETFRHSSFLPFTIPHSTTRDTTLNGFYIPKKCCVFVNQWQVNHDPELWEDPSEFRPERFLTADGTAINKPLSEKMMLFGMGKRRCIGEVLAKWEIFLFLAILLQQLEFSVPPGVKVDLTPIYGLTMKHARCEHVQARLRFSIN

Cytochrome P450 2C19 = Cytochrome P450 2C19 (Homo sapiens, UniProt P33261); experiment: Cytochrome panel assay with activity outcomes. Panel member name: p450-cyp2c19 Compounds with AC50 equal or less than 10 uM are considered active; type: functional; conditions: read-out: AC50
[11] = biological target: T4, Heat shock factor protein 1 (Mus musculus, UniProt P38532); experiment: enhancement of HSF1-driven luciferase signal – cell-based, NIH3T3, luminescence, dose retest, confirmation (AID 435004); type: functional;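 also: stress induced by proteasome inhibitor MG132 added 30 min after compound; luciferase reporter driven by HSF1 response element in NIH3T3 cells; actives raise luminescence as potentiators of the MG132 stress response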
T4 sequence (P38532 whole entry): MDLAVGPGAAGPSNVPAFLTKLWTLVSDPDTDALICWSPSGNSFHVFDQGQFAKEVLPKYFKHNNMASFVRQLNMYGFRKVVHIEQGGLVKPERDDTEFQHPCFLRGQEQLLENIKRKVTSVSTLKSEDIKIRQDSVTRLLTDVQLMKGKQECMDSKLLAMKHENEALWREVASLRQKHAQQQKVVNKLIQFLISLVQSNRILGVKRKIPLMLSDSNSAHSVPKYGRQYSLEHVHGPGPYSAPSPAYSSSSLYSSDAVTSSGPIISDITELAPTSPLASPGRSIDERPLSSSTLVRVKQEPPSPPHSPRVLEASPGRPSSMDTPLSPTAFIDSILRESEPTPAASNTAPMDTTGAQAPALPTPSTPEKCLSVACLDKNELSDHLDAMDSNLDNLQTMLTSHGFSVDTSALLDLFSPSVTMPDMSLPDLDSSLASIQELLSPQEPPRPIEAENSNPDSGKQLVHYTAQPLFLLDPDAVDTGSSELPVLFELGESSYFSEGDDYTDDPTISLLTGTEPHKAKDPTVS

Luciferin 4-monooxygenase, sequence (P08659 whole entry): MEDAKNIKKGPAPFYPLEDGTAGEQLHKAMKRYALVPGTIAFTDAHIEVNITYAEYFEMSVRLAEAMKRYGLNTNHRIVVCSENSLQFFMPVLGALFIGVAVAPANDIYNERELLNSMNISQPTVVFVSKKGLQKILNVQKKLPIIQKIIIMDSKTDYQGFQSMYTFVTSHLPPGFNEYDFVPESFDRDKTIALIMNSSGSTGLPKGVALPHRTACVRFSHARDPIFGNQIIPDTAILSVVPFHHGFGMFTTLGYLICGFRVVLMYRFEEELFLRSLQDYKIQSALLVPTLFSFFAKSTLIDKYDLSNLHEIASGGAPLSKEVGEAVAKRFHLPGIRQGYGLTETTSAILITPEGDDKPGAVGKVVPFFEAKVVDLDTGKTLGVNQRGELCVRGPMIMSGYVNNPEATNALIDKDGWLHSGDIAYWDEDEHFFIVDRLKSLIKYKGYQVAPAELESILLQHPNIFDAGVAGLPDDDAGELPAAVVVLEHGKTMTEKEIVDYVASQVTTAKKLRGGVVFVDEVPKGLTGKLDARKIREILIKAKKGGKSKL
Cytochrome P450 2C9, sequence (P11712 whole entry): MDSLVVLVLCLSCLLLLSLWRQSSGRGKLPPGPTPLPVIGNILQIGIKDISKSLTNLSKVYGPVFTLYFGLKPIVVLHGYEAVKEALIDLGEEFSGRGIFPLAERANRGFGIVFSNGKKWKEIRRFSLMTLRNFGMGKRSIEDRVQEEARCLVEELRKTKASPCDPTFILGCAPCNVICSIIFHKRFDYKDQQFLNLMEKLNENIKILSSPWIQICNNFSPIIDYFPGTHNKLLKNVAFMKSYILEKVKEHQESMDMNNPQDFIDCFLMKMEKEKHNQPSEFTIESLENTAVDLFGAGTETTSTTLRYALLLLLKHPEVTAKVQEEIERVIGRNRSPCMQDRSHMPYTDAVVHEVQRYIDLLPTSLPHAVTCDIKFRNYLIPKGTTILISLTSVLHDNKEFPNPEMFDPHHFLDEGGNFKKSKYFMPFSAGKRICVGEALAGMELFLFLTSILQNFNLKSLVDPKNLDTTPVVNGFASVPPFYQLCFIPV
Cytochrome P450 2D6, sequence (P10635 whole entry): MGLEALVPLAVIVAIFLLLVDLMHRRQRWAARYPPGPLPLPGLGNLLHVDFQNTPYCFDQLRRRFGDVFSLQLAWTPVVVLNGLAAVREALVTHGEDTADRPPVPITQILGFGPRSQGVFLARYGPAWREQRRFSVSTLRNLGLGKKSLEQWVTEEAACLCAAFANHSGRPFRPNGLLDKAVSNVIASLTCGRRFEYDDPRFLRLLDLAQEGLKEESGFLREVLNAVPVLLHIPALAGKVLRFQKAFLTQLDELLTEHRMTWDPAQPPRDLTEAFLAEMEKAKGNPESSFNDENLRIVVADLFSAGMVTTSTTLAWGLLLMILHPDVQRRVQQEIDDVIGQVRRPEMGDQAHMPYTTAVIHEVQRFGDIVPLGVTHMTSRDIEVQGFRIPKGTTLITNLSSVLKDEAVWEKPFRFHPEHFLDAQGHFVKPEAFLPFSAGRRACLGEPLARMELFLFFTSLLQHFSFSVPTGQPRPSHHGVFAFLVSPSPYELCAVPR
FAD-linked sulfhydryl oxidase ALR, sequence (P55789 whole entry): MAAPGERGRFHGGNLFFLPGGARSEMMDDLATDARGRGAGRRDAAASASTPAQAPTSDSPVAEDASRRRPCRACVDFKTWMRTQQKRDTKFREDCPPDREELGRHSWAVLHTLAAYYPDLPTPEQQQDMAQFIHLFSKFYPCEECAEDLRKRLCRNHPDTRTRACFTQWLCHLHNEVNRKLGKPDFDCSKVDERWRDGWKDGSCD
Cytochrome P450 3A4, sequence (P08684 whole entry): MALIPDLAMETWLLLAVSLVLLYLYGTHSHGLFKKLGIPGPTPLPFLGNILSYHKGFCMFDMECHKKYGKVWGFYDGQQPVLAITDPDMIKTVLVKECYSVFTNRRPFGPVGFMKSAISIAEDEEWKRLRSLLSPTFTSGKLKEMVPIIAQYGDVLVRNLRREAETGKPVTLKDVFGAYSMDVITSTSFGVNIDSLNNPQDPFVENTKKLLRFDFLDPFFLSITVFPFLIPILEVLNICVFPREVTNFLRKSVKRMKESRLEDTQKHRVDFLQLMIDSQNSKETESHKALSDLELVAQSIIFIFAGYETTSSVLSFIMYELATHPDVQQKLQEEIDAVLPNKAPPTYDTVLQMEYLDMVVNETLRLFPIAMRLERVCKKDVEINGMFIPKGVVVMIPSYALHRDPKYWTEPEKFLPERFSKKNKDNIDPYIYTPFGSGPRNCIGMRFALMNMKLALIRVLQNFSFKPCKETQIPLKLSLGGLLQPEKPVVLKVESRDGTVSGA
Cytochrome P450 2C19, sequence (P33261 whole entry): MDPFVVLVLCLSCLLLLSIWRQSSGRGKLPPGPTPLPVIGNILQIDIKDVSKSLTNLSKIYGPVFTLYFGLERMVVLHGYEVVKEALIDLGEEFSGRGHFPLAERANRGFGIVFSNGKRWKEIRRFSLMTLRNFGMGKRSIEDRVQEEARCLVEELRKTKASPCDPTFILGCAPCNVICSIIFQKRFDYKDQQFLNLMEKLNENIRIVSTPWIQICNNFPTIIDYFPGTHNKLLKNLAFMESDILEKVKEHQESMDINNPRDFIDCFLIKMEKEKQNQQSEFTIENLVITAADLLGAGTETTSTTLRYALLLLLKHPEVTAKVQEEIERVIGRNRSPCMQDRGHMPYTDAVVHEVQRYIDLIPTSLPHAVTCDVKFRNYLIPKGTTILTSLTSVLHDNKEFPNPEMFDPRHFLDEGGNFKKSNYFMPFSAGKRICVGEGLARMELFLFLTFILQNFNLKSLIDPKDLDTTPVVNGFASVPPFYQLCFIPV

COC(=O)N1CCN(C(=O)Cc2ccc(Cl)c(Cl)c2)[C@H](CN2CCCC2)C1
AC50 (Cytochrome P450 2D6): 20 µM (inconclusive)

Cn1c(N)c(C(=O)COC(=O)CCC2CCCCC2)c(=O)n(C)c1=O
IC50 [1]: 5.23 µM (active)

CCN(CC)c1ccc(C2CC(=O)Nc3cc(OC)c(OC)cc32)cc1 (centres undefined)
AC50 [2]: 2.47 µM (active)

CO[C@H]1CN(C)C(=O)c2ccc(NC(=O)Nc3cc(F)ccc3F)cc2OC[C@@H](C)N(C)C[C@H]1C
AC50 [3]: 11.4 µM (active)

O=C(c1ccccc1)c1cc2ccc(O)cc2oc1=O
EC50 (Streptokinase A): > 150 µM (not active)
EC50 [4]: < 0.701 µM (active)
EC50 [5]: 8.12 µM (active)
EC50 (Streptococcus): 18.5 µM (active)
EC50 [6]: 1.14 µM (active)

c1csc(CN2CC[C@@]3(CCCNC3)C2)n1
AC50 (Cytochrome P450 2D6): 12.6 µM (inconclusive)

O=C(NCc1cccnc1)C(=O)NCC(c1ccco1)N1CCN(c2ccc(F)cc2)CC1 (centres undefined)
AC50 [2]: 6.41 µM (active)

NCC(c1ccc(Cl)cc1Cl)c1c[nH]c2ccccc12 (centres undefined)
AC50 [7]: 8.89 µM (active)
EC50 [8]: > 38 µM (not active)
EC50 [9]: 26.2 µM (active)

COc1ccc(CNc2nc(-c3ccc4c(c3)OCO4)nc3ccccc23)c(OC)c1
AC50 (Cytochrome P450 2D6): 12.6 µM (inconclusive)
AC50 (Cytochrome P450 2C9): 0.501 µM (inconclusive)

CCOC(=O)c1ccccc1NC(=O)c1cccc([N+](=O)[O-])c1
EC50 [8]: > 38 µM (not active)
EC50 [9]: > 150 µM (inactive)

CCCCC(CC)C(=O)Oc1ccc(O)c(C(C)(C)C)c1 (centres undefined)
EC50 (Streptokinase A): 4.96 µM (active)
IC50 [1]: 13.5 µM (not active)
EC50 [5]: 3.2 µM (active)
EC50 (Streptococcus): 7.84 µM (active)

CC(C)c1cc(C(N)=O)c(NC(=O)C2CCC2)s1
AC50 [2]: 9.12 µM (active)

COC(=O)c1c(C(=O)OC)c(-c2ccc(Cl)c(Cl)c2)n2c1CCC2
EC50 [8]: > 38 µM (not active)
EC50 [9]: > 160 µM (inactive)

C[C@H]1CN([C@@H](C)CO)S(=O)(=O)c2ccc(C#Cc3ccncc3)cc2O[C@H]1CN(C)S(=O)(=O)c1ccc(F)cc1
AC50 [3]: 4.11 µM (active)

CC(C)(C)OC(=O)NCCCC[C@H](NC(=O)c1nc[nH]c1C(=O)N[C@@H](CCCCNC(=O)OC(C)(C)C)C(=O)OC(C)(C)C)C(=O)OC(C)(C)C
IC50 [1]: 3.89 µM (not active)

Cc1cc(C)c(C(=O)COC(=O)CCNS(=O)(=O)c2c(Cl)cccc2Cl)cc1C
IC50 [1]: 4.97 µM (not active)

CN(C)c1ccc(-c2nc(NC3CCNCC3)c3ccccc3n2)cc1
AC50 (Cytochrome P450 3A4): 31.6 µM (inconclusive)
AC50 (Cytochrome P450 2D6): 39.8 µM (inconclusive)

O=C(N/N=C\c1cccc(Br)c1)c1ccccc1-n1cccc1
IC50 [1]: > 50 µM (not active)

CCCn1c(N)c(C(=O)COC(=O)c2c(C)noc2C)c(=O)n(C)c1=O
EC50 [8]: > 38 µM (not active)
EC50 [9]: > 150 µM (inactive)

CCN(CC)C(=S)Sc1c(O)nc2ccc(Cl)cc2c1-c1ccccc1
AC50 [10]: 27 µM (active)
EC50 [5]: 0.831 µM (active)
EC50 (Streptococcus): 1.8 µM (active)

CN=C(S)NNC(=O)c1ccccc1F
IC50 [1]: 17.7 µM (not active)

CC(=O)N/N=C/c1cc(C)n(-c2ccc(Br)cc2)c1C
AC50 [2]: 0.414 µM (active)

COc1cccc(N2CCN(Cc3cccnc3)CC2)c1
AC50 [2]: 10.3 µM (active)

CCC(=O)N1CCc2cc(S(=O)(=O)NCCC(=O)N3CCN(c4cccc(C)c4)C(C)C3)ccc21 (centres undefined)
AC50 [2]: 72.4 µM (active)

C[C@H](CO)N1C[C@H](C)[C@H](CN(C)S(=O)(=O)c2ccccc2F)OCc2ccccc2-c2c(n(C)c3ccccc23)C1=O
AC50 [3]: 3.61 µM (active)

COc1ccc(N2CCN(C(=O)NCc3ccc(OC)c(OC)c3)CC2)cc1
AC50 [2]: 5.76 µM (active)

O=C(Oc1c(CN2CCOCC2)cc(Cl)c2cccnc12)c1ccccc1
AC50 (INS1): 4.16 µM (active)
EC50 [8]: 3.71 µM (active)
EC50 [9]: > 150 µM (inactive)

COc1ccc(S(=O)(=O)N(C)C[C@H]2Oc3c(NC(=O)Nc4ccc5c(c4)OCO5)cccc3C(=O)N([C@@H](C)CO)C[C@H]2C)cc1
AC50 [3]: 4.41 µM (active)

CCn1c(S)nnc1CN1C(=O)CSc2ccccc21
AC50 [2]: 1.85 µM (active)

O=C1CCC(c2ccccc2)=NN1c1nc2ccccc2s1
AC50 (Cytochrome P450 2D6): 3.98 µM (inconclusive)
AC50 (Cytochrome P450 2C9): 3.98 µM (inconclusive)

COc1ccc2[nH]cc(CCNc3ccnc(-c4ccc(C(=O)N(C)C)cc4)n3)c2c1
AC50 (Cytochrome P450 2D6): 25.1 µM (inconclusive)

Cc1cc(NC(=O)c2ccccc2Cl)no1
AC50 (Cytochrome P450 1A2): 31.6 µM (inconclusive)
EC50 [4]: > 112 µM (not active)
AC50 (Cytochrome P450 2C19): 14.1 µM (inconclusive)
EC50 [6]: > 112 µM (not active)

COC(=O)c1[nH]c2ccccc2c1NC(=O)CN1CCN(C(=O)c2ccco2)CC1
EC50 [4]: > 112 µM (not active)
EC50 [6]: > 112 µM (not active)

Cc1cc(NC(=O)C2CCCN(S(=O)(=O)c3c[nH]cn3)C2)ccc1Br (centres undefined)
AC50 [2]: 69.2 µM (active)

O=C(NCC1CC1)Nc1cccs1
AC50 [2]: 4.97 µM (active)

CN(C)c1ccc(-c2nc(Nc3ccncc3)c3ccccc3n2)cc1
AC50 (Cytochrome P450 2D6): 25.1 µM (inconclusive)
AC50 (Cytochrome P450 2C9): 0.794 µM (inconclusive)

Cc1nc(Nc2ccccc2)sc1C(=O)c1ccccc1
IC50 [1]: 3.41 µM (not active)

O=C(N/N=C1/CC/C(=N/NC(=O)c2cccnc2)CC1)c1cccnc1
AC50 [2]: 0.879 µM (active)

CCc1c(C)c2cc(Cl)c(O)c(CN3CCCCC3)c2oc1=O
AC50 [2]: 9.26 µM (active)

S=C(NCc1ccco1)N/N=C/c1ccc(Cl)cc1
IC50 [1]: 6.94 µM (not active)
EC50 [11]: > 260 µM (inactive)

COc1cc(N/C=C(\C(C)=O)c2ccccc2)cc(OC)c1
IC50 [1]: > 50 µM (not active)

Cc1ccc(Nc2nc(-c3sc(NC(=O)c4ccc([N+](=O)[O-])cc4)nc3C)cs2)cc1
AC50 (Cytochrome P450 1A2): 2.24 µM (inconclusive)
AC50 (Cytochrome P450 2D6): 0.01 µM (inconclusive)

COc1ccc2c3c([nH]c2c1)[C@@H](CO)N(Cc1cccc(F)c1)CC31CCN(C(C)=O)CC1
AC50 [3]: 5.78 µM (active)
